# Laboratory results from paper PMC8199331, “Baicalein Ameliorates Streptococcus suis-Induced Infection In Vitro and In Vivo” (International Journal of Molecular Sciences, 2021).
# Target: SLY (suilysin) (Streptococcus suis, UniProt Q55996)
# Assay: biochemical
# Chain of SLY (suilysin) (Q55996 28-497 limits assumed): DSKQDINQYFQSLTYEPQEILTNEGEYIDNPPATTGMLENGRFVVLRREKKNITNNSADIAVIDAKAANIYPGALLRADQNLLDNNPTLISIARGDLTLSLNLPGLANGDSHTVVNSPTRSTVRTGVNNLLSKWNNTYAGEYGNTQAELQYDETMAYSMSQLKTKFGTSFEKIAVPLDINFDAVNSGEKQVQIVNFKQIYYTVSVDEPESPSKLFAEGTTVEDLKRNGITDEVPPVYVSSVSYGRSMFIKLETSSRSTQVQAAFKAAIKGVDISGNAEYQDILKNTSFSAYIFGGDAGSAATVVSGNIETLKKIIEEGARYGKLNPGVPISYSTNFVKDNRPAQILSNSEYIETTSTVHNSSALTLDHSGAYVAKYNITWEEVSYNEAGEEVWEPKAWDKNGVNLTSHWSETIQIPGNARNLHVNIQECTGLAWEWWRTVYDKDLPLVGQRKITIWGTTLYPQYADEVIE
compound,measurement,value
O=c1cc(-c2ccccc2)oc2cc(O)c(O)c(O)c12 [Baicalein],Kd,865 nM
